Paper PMC12114683, “The Molecular Chaperone TCP1 Affects Carcinogenicity and Is a Potential Therapeutic Target for Acute Myeloid Leukemia” (Pharmaceutics, 2025)

Target: T1, TCP1 (Homo sapiens, UniProt P17987)
T1 construct: commercial recombinant TCP1 (Abnova), isolated subunit, amine-coupled to CM5 chip; PDB 4B2T was only the docking model
Assay: SPR (Biacore T200, CM5 chip, TCP1 amine-coupled)
Format: binding

T1 sequence (P17987 whole entry): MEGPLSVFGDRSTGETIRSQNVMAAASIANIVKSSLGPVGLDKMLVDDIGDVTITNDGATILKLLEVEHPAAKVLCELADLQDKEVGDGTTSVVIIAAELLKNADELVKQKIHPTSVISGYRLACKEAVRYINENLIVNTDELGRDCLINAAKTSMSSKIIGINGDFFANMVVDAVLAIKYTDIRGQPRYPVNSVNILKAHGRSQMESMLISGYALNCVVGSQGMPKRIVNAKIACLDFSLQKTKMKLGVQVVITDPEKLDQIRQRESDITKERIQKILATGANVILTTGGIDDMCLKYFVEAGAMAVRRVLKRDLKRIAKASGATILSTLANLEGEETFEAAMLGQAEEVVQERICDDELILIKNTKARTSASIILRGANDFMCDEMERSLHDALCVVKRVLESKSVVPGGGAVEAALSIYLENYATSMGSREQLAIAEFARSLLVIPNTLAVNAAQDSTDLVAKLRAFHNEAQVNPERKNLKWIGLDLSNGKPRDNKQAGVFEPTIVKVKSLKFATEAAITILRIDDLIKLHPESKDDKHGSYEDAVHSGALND

## CCCCCCCCc1ccc(CCC(N)(CO)CO)cc1 [FTY720]
  Kd: 6.77 nM
